# Assay results reported in patent US9833455B2, “Preparation and methods of use for ortho-aryl 5-membered heteroaryl-carboxamide containing multi-targeted kinase inhibitors” (Spacefill Enterprises LLC, priority 2011, dated 2017).
# pIC50: −log10 of the molar value. Where two headings read alike, the source gives them in different places.
# Legend:
# [1] = system: panel of kinases; experiment: Nanosyn kinase panel profiling (panels of 29, 220, 230, 250 kinases), whole panel; type: biochemical; conditions: for activity against any of the kinases tested: panel of 29 selected kinases
# Description: “Inhibiting kinase activity” means to decrease the production of an phosphor-peptide by a particular kinase that can be separated by analytical techniques. […] Profiling data in this application were determined using these techniques at Nanosyn Inc. IC50 data were provided by Reaction Biology Inc using a P33 radiolabeled kinase assay.
# These compounds were profiled against a panel of 230 kinases (Nanosyn Inc.).
# A total of 15 new inhibitors were designed, prepared, and evaluated against a panel of 29 selected kinases in order to explore the applicability, SAR trends, and the tunability of this scaffold that could be imposed but this unique geometry, Table 21. Inhibitors I-1 to 1-12 all retained the 2-CF3-5-(4-F-phenyl) imidazole-4-carboxamide scaffold previously described (Deitrich, 2010), but explored different Hinge-Gatekeeper Motifs (HGM).
# To further test the breadth of applicability and ability to achieve selectivity with inhibitors that share this scaffold geometry, I-11 and I-12 were evaluated against a larger panel of 220 high interest kinases, Table-23.
# [2] = biological target: T1, BRAF(V600E) (Homo sapiens, UniProt P15056, V600E); experiment: Real time kinetic experiments; type: biochemical
# T1 sequence (P15056 whole entry V600E): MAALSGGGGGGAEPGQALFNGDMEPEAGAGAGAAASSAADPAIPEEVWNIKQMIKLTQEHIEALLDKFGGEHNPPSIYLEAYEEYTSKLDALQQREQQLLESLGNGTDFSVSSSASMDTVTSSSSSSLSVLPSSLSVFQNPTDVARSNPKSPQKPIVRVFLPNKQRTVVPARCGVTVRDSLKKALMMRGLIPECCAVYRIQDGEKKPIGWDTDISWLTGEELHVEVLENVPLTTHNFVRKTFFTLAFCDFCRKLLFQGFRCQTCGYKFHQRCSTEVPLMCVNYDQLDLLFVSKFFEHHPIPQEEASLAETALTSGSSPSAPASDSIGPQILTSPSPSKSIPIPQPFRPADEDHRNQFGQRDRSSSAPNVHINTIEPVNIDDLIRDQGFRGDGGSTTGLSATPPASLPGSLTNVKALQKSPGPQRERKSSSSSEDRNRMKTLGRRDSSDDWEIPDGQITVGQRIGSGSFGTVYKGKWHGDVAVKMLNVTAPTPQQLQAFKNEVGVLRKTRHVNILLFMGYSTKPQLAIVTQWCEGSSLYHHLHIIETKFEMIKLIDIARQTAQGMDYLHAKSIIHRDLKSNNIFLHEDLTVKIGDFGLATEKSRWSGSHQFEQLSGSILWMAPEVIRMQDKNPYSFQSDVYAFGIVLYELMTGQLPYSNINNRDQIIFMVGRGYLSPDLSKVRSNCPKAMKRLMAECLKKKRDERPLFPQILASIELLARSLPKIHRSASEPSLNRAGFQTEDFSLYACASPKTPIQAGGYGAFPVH
# Description: (§1) To test both our binding mode hypothesis and to see if these structural differences could be taken exploited to impart selectivity and potency improvements, I-13, in which the lipophilic 2-trifluoromethy substituent on imidazole ring of inhibitor KIN-035, was replaced by the polar 2-methylsulfonyl substitutent. […] To address this issue, real time kinetic experiments were performed.
# [3] = biological target: wild type B-Raf (Homo sapiens, UniProt P15056); experiment: LanthaScreen assay, IC50; type: biochemical
# wild type B-Raf, sequence (P15056 whole entry): as the sequence (P15056 whole entry V600E) above, with E600V counted along it
# Description: as §1
# [4] = biological target: T1, BRAF(V600E); experiment: LanthaScreen assay, side by side IC50 comparison; type: biochemical
# Description: as §1
# [5] = biological target: T2, IKK-beta (Homo sapiens, UniProt O14920); conditions: 1 μM, duplicate, without preincubation; cited from earlier work
# T2 construct: literature Ambit Biosciences
# T2 sequence (O14920 whole entry): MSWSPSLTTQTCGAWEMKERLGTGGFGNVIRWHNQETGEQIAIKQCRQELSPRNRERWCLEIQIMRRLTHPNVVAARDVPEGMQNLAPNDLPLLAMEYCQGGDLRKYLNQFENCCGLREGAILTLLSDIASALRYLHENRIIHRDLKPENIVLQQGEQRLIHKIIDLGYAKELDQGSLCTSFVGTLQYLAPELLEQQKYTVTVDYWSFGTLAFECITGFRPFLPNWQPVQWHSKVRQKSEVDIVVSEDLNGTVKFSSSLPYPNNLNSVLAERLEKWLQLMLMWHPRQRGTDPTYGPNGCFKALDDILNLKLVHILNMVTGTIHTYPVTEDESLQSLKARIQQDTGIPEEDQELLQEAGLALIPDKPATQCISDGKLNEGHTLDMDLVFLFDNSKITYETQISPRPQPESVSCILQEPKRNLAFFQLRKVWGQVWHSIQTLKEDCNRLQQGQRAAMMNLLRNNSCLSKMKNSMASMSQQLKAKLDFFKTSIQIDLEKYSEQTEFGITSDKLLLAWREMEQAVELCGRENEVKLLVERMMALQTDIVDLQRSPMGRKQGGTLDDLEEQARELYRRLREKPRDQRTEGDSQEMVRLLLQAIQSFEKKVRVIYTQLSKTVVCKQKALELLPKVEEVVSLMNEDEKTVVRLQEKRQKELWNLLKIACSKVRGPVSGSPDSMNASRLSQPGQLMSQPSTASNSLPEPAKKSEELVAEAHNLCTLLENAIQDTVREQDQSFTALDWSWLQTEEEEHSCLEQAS
# [6] = biological target: T3, ULK2 (Homo sapiens, UniProt Q8IYT8); conditions: 1 μM, duplicate, without preincubation; cited from earlier work
# T3 construct: literature Ambit Biosciences
# T3 sequence (Q8IYT8 whole entry): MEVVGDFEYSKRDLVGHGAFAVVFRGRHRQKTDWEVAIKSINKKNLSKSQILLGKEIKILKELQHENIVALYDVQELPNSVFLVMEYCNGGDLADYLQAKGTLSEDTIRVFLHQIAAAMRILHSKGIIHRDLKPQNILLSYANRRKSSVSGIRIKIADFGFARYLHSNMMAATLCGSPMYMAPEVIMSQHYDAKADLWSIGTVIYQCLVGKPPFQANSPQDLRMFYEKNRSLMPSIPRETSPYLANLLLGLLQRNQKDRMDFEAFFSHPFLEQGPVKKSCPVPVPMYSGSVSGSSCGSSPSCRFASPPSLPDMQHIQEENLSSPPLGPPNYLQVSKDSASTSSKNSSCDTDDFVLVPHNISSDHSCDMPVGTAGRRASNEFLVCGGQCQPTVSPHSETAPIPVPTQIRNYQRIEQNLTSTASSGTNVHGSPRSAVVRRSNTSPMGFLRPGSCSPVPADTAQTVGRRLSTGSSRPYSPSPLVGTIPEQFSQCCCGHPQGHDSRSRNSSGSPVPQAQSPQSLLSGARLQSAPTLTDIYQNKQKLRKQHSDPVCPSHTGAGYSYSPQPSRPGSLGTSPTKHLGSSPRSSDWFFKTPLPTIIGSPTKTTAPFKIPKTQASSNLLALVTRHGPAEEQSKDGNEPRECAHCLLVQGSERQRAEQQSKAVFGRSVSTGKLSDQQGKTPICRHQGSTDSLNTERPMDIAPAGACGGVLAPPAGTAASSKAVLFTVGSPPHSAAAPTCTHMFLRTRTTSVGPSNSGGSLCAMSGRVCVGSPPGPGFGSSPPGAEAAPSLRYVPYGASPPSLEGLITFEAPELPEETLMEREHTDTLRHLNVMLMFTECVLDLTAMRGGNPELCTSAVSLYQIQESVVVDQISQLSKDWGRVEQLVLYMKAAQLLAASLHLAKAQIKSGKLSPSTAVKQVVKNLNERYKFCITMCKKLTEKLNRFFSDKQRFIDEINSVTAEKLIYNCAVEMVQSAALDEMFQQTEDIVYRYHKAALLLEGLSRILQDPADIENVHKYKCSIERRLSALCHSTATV
# [7] = biological target: KIT (Homo sapiens, UniProt P10721); conditions: 1 μM, duplicate, without preincubation; cited from earlier work
# [8] = biological target: T4, CDK7 (Homo sapiens, UniProt P50613); conditions: 1 μM, duplicate, without preincubation; cited from earlier work
# T4 construct: literature Ambit Biosciences
# T4 sequence (P50613 whole entry): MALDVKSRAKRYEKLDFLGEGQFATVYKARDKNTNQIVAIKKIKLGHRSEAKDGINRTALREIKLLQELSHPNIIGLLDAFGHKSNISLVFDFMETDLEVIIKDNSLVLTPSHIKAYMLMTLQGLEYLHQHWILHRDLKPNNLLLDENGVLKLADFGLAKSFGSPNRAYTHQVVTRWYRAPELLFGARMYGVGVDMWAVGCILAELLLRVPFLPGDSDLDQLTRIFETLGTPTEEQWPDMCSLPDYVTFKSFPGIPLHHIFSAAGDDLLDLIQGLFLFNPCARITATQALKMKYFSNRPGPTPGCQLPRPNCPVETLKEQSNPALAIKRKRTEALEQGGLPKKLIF
# [9] = biological target: T5, BTK (Homo sapiens, UniProt Q06187); conditions: 1 μM, duplicate, without preincubation; cited from earlier work
# T5 construct: literature Ambit Biosciences
# [10] = biological target: T6, PDGFRB (Homo sapiens, UniProt P09619); conditions: 1 μM, duplicate, without preincubation; cited from earlier work
# T6 construct: literature Ambit Biosciences
# T6 sequence (P09619 33-1106): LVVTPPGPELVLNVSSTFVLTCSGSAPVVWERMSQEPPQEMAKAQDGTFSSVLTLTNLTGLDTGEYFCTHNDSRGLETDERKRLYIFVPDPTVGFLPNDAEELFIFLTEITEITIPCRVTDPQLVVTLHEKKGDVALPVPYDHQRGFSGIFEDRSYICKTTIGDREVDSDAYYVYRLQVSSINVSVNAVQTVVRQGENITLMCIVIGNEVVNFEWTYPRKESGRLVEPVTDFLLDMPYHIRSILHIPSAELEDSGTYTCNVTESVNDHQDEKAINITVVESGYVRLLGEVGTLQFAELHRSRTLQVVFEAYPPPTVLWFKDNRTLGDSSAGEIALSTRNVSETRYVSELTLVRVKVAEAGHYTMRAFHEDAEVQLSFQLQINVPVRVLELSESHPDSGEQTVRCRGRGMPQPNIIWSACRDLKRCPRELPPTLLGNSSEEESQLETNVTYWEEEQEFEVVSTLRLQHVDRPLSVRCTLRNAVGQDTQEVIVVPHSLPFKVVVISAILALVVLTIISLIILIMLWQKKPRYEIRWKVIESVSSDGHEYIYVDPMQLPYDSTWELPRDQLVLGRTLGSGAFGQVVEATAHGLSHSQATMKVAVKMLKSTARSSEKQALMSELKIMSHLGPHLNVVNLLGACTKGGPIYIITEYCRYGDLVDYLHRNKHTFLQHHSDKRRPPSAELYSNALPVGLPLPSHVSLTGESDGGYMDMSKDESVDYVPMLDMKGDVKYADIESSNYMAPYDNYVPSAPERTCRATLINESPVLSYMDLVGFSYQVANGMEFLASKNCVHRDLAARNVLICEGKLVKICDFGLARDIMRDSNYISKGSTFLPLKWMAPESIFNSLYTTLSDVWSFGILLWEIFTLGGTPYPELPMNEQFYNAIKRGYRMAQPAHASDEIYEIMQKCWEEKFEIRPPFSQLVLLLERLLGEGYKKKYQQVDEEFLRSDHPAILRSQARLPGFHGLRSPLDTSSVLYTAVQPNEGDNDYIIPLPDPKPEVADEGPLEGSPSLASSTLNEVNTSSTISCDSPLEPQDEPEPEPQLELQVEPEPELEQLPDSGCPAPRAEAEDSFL
# [11] = biological target: T7, CSF1R (Homo sapiens, UniProt P07333); conditions: 1 μM, duplicate, without preincubation; cited from earlier work
# T7 construct: literature Ambit Biosciences
# [12] = biological target: T8, JAK2 (catalytic) (Homo sapiens, UniProt O60674); conditions: 1 μM, duplicate, without preincubation; cited from earlier work
# T8 construct: catalytic; literature Ambit Biosciences
# [13] = biological target: T9, PLK4 (Homo sapiens, UniProt O00444); conditions: 1 μM, duplicate, without preincubation; cited from earlier work
# T9 construct: literature Ambit Biosciences
# T9 sequence (O00444 1-970): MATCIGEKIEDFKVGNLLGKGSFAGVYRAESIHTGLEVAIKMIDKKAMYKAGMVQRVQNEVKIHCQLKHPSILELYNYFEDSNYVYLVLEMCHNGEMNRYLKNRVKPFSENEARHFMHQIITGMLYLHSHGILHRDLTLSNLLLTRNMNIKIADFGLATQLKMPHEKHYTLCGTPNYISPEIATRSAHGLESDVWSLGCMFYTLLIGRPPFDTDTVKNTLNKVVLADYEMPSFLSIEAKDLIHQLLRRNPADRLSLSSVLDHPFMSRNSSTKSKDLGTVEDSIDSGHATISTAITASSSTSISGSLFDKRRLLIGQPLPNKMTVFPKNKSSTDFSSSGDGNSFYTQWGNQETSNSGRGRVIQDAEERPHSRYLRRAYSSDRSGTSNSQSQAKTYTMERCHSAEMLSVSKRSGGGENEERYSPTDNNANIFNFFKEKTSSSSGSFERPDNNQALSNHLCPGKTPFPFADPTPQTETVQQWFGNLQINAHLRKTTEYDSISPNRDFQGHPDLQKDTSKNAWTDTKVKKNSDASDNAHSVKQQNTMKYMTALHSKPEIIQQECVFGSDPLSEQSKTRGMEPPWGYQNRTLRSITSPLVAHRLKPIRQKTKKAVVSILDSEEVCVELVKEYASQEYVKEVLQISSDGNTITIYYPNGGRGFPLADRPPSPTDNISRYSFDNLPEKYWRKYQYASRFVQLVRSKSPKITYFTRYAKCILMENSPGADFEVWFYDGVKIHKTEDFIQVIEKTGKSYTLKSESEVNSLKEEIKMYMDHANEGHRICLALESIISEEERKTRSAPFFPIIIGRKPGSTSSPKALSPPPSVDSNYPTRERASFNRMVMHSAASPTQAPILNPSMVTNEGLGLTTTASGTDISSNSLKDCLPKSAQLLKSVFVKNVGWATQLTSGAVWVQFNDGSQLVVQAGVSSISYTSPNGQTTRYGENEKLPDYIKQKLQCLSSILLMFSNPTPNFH
# [14] = biological target: T10, CDK11 (Homo sapiens, UniProt Q9BWU1); conditions: 1 μM, duplicate, without preincubation; cited from earlier work
# T10 construct: literature Ambit Biosciences
# [15] = biological target: T11, DCAMKL1 (Homo sapiens, UniProt O15075); conditions: 1 μM, duplicate, without preincubation; cited from earlier work
# T11 construct: literature Ambit Biosciences
# T11 sequence (O15075 1-740): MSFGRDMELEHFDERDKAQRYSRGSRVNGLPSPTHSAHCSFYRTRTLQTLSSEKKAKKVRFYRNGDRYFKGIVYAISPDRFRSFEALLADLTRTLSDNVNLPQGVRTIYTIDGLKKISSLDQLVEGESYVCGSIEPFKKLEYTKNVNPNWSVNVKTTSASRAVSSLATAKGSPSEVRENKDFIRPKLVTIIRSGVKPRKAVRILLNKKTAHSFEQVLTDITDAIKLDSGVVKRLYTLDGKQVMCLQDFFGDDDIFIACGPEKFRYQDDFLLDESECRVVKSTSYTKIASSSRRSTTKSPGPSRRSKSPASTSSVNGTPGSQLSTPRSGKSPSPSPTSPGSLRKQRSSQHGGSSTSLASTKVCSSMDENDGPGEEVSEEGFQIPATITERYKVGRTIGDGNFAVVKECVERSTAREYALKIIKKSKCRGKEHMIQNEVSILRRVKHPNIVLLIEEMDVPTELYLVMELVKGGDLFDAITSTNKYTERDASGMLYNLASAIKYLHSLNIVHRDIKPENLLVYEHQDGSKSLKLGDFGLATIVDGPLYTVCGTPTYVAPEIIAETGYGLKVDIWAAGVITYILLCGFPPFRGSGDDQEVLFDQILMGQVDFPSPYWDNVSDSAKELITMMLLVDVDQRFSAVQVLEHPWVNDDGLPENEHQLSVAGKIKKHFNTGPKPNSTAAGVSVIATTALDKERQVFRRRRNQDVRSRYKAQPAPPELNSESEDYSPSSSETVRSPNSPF
# [16] = biological target: T12, RAF1 (Homo sapiens, UniProt P04049); conditions: 1 μM, duplicate, without preincubation; cited from earlier work
# T12 construct: literature Ambit Biosciences
# T12 sequence (P04049 whole entry): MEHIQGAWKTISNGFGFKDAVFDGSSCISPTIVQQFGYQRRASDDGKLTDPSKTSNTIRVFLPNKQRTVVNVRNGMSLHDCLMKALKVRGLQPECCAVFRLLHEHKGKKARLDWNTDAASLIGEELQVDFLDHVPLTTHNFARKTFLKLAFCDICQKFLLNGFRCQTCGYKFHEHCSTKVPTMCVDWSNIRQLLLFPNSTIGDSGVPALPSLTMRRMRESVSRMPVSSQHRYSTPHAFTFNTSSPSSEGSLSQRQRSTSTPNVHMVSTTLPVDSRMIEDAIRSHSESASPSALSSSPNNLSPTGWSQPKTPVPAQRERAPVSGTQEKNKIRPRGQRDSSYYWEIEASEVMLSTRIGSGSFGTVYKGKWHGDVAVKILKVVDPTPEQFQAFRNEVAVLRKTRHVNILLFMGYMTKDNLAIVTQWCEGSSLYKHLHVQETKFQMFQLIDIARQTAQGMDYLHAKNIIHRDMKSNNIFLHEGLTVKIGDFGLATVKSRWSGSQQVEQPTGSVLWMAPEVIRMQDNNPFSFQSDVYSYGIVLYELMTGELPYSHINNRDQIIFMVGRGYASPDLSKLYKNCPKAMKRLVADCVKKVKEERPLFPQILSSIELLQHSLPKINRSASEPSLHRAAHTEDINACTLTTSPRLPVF
# [17] = biological target: T13, PRKCE (Homo sapiens, UniProt Q02156); conditions: 1 μM, duplicate, without preincubation; cited from earlier work
# T13 construct: literature Ambit Biosciences
# T13 sequence (Q02156 1-737): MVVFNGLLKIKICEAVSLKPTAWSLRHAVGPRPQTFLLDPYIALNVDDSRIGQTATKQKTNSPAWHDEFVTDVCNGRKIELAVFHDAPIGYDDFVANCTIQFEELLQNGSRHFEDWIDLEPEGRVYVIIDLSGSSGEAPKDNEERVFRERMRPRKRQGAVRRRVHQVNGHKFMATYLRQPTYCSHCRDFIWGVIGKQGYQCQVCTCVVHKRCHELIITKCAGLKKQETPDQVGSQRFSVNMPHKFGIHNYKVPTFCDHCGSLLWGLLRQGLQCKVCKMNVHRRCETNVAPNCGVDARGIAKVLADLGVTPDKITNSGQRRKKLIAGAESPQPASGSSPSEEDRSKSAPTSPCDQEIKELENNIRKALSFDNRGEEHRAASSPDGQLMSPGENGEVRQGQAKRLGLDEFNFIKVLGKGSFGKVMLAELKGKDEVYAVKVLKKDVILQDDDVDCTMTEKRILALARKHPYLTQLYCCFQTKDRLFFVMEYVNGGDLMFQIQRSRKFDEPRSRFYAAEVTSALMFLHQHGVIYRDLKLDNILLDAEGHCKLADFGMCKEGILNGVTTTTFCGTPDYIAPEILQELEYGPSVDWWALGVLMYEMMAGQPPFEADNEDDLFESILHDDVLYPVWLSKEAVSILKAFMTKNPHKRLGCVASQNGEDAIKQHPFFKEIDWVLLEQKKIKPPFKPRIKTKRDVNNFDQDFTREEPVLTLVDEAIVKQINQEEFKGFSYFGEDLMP
# [18] = biological target: T14, p38-beta (Homo sapiens, UniProt Q15759); conditions: 1 μM, duplicate, without preincubation; cited from earlier work
# T14 construct: literature Ambit Biosciences
# T14 sequence (Q15759 whole entry): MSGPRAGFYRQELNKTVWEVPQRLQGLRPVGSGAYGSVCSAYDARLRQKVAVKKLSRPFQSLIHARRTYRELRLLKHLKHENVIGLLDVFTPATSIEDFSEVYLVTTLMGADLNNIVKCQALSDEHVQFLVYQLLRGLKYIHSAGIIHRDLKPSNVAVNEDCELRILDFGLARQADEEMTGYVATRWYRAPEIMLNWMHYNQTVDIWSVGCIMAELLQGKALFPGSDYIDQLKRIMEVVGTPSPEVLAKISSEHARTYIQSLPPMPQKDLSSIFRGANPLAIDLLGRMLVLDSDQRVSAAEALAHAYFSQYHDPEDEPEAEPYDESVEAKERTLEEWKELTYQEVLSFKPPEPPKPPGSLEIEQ
# [19] = biological target: T15, p38-alpha (Homo sapiens, UniProt Q16539); conditions: 1 μM, duplicate, without preincubation; cited from earlier work
# T15 construct: literature Ambit Biosciences
# [20] = biological target: T16, PDGFRA (Homo sapiens, UniProt P16234); conditions: 1 μM, duplicate, without preincubation; cited from earlier work
# T16 construct: literature Ambit Biosciences
# [21] = biological target: T1, BRAF(V600E); design: literature Ambit Biosciences; conditions: 1 μM, duplicate, without preincubation; cited from earlier work
# [22] = biological target: T17, BRAF (Homo sapiens, UniProt P15056); conditions: 1 μM, duplicate, without preincubation; cited from earlier work
# T17 construct: literature Ambit Biosciences
smiles,measurement,setting,value
"O=C(Nc1ccccn1)c1cc(NC(=O)c2nc(C(F)(F)F)[nH]c2-c2ccc(F)cc2)ccc1Cl [Inhibitor I-1, 5-(4-Fluoro-phenyl)-2-trifluoromethyl-3H-imidazole-4-carboxylic acid [4-chloro-3-(pyridin-2-ylcarbamoyl)-phenyl]-amide]",activity against any of the kinases tested,[1],no significant activity
"O=C(Nc1ccncc1)c1cc(NC(=O)c2nc(C(F)(F)F)[nH]c2-c2ccc(F)cc2)ccc1Cl [Inhibitor I-2, 5-(4-Fluoro-phenyl)-2-trifluoromethyl-3H-imidazole-4-carboxylic acid [4-chloro-3-(pyridin-4-ylcarbamoyl)-phenyl]-amide]",activity against any of the kinases tested,[1],no significant activity
"Cc1ccc(NC(=O)c2nc(C(F)(F)F)[nH]c2-c2ccc(F)cc2)cc1NC(=O)c1c[nH]c2ncccc12 [Inhibitor I-11, 1H-7-Azaindole-3-carboxylic acid (5-{[5-(4-fluoro-phenyl)-2-trifluoromethyl-3H-imidazole-4-carbonyl]-amino}-2-methyl-phenyl)-amide]",selectivity in kinase panel,"[1]; panel of 220 kinases, 5 μM",extremely selective for p38-α
"O=C(Nc1ccc(Oc2ccnc3[nH]c(=O)[nH]c23)cc1)c1nc(C(F)(F)F)[nH]c1-c1ccc(F)cc1 [Inhibitor I-12, 4-(4-{[5-(4-Fluoro-phenyl)-2-trifluoromethyl-3H-imidazole-4-carbonyl]-amino}-phenoxy)-pyridine-2,3-benzimidazolone carboxylic acid methylamide]",number of panel kinases at >25% inhibition,"[1]; panel of 220 kinases, 5 μM",72 kinases
same,number of panel kinases with greater than 50% inhibition,"[1]; panel of 220 kinases, 5 μM",45 kinases
"Cc1ccc(NC(=O)c2nc(S(C)(=O)=O)[nH]c2-c2ccc(F)cc2)cc1Nc1ccc2ncn(C)c(=O)c2c1 [Inhibitor I-13, 3-(3-methyl-4-oxo-3,4-dihydroquinazolin-6-ylamino)-4-methyl-analine, 5-(4-Fluorophenyl)-2-(methylsulfonyl)-1H-imidazole-4-carboxamide]",real time kinetic data with B-Raf(V600E),[2],consistent with either extremely tight binding or irreversible inhibition
same,real time kinetic data with B-Raf(V600E),[2]; listed as SFE-0013,consistent with extremely tight or irreversible inhibition
same,pIC50,[3],~6.30
same,more potent against the mutant verses wild type B-Raf,[4]; B-Raf(V600E) vs wild type B-Raf,approximately 80 fold
same,increase in potency vs KIN-0035,"[4]; LanthaScreen assay, IC50 ratio",10 fold
same,pIC50,"[4]; LanthaScreen assay, side by side comparison",8.18
same,change of IC50 value with preincubation,[4]; several hour preincubation period,appeared to decrease over a several hour preincubation period
Cc1ccc(NC(=O)c2[nH]c(C(F)(F)F)nc2-c2ccc(F)c(F)c2)cc1Nc1ccc2ncn(C)c(=O)c2c1 [KIN-057],inhibition of IKK-beta,[5],X (X > 25% @ 1 μM)
same,inhibition of ULK2,[6],X (X > 25% @ 1 μM)
same,inhibition of KIT,[7],XXX (XXX > 75% @ 1 μM)
same,inhibition of CDK7,[8],X (X > 25% @ 1 μM)
same,inhibition of BTK,[9],X (X > 25% @ 1 μM)
same,inhibition of PDGFRB,[10],XXX (XXX > 75% @ 1 μM)
same,inhibition of CSF1R,[11],X (X > 25% @ 1 μM)
same,inhibition of JAK2 (catalytic),[12],X (X > 25% @ 1 μM)
same,inhibition of PLK4,[13],X (X > 25% @ 1 μM)
same,inhibition of CDK11,[14],XX (XX > 50% @ 1 μM)
same,inhibition of DCAMKL1,[15],X (X > 25% @ 1 μM)
same,inhibition of RAF1,[16],XXXX (XXXX > 90% @ 1 μM)
same,inhibition of PRKCE,[17],X (X > 25% @ 1 μM)
same,inhibition of p38-beta,[18],X (X > 25% @ 1 μM)
same,inhibition of p38-alpha,[19],XXX (XXX > 75% @ 1 μM)
same,inhibition of PDGFRA,[20],X (X > 25% @ 1 μM)
same,inhibition of BRAF(V600E),[21],XXX (XXX > 75% @ 1 μM)
same,inhibition of BRAF,[22],XXX (XXX > 75% @ 1 μM)
